# Legend:
# [1] = system: soil microbes; conditions: Met 1 mM, Met:Fat 1:10 in combinations
# Experimental: 5 grams of arsenic-contaminated rice field soils taken from Hunan Province, China was placed into a 20 mL glass sample tube, 2.5 mL of sterilized culture medium was added, and then the glass sample tube was placed in an anaerobic glove box for cultivation. The culture medium was composed of 10 mM NH4Cl, 5 mM NaHCO3, 1 mM KH2PO4, 0.5 mM MgCl2, 0.5 CaCl2, 1 mL of L^−1 vitamin and 1 mL/L of trace elements. […] After addition of the Met and the Fat and after further reaction for 60 days, headspace gas was collected and measured by GC-TCD, a soil suspension was extracted, and ammonium dihydrogen phosphate was added to desorb adsorbed methyl arsenic. After the resulted soil suspension passed through a 0.22-micron membrane, methyl arsenic, including monomethylarsenic, dimethylarsenic and trimethylarsenic oxides, in a soil solution was measured by HPLC-ICPMS. […]
# After further anaerobic culture for 60 days, headspace gas was collected and measured by GC-TCD, a soil suspension was extracted, and ammonium dihydrogen phosphate was added to desorb adsorbed methyl arsenic. After the resulted soil suspension passed through a 0.22-micron membrane, the methyl arsenic in the soil solution was measured by HPLC-ICPMS.
# [2] = system: arsM gene; conditions: soil control 950
# Experimental: Construction of the plasmid standard was performed by ligating a vector pUC19 with a PCR product of arsM or mcrA gene. After a single clone was picked, plasmid DNA was extracted, the DNA concentration was measured with Qubit 3.0 Fluorometer, the gene copy number was calculated, and then the EASY dilution solution was diluted to 10^2-10^8(copy number per μL) to obtain a Standard curve. […] Information and reaction procedures of the primers used for amplification of the arsM and mcrA genes were as follows:
# arsM amplification reaction program: at 95° C. for 10 min; at 95° C. for 30 s, at 60° C. for 45 s, and at 72° C. for 1 min, 40 cycles; and prolonging at 72° C. for 10 min;
# [3] = system: mcrA gene; conditions: soil control 1.5*10^6
# Experimental: Construction of the plasmid standard was performed by ligating a vector pUC19 with a PCR product of arsM or mcrA gene. After a single clone was picked, plasmid DNA was extracted, the DNA concentration was measured with Qubit 3.0 Fluorometer, the gene copy number was calculated, and then the EASY dilution solution was diluted to 10^2-10^8(copy number per μL) to obtain a Standard curve.
# mcrA amplification reaction program: at 95° C. for 10 min; at 95° C. for 15 s, at 58° C. for 30 s, and at 72° C. for 30 s, 40 cycles; and prolonging at 72° C. for 2 min.
structure (smiles),measurement,setting,value
CSCC[C@H](N)C(=O)O [methionine],production of methyl arsenic,[1]; 60 days anaerobic reaction,0.1 µM
same,methane emission,"[1]; 60 days, control group 5.5 mM",18.7 mM
same,transcript copy number of arsM,[2],1200 copies per g of soils
same,transcript copy number of mcrA,[3],2.0*10^7 copies per g of soils
